Results taken from US20110098180A1, “Herbicide-Resistant Plants, And Polynucleotides And Methods For Providing Same” (United States Department of Agriculture, priority 2002, published 2011).

What was measured:
[1] = test system: Arabidopsis thaliana transformed with Hydrilla PDS constructs; experiment: Herbicide resistance of transformed Arabidopsis T1 seedlings; assay type: in vivo
From the text: Binary vectors for pds expression in plants included the 1-323 by upstream of the beginning of the putative mature protien, which is assumed to encode for chloroplast signal peptide/s. pHy4ATG5 was mutagenized at the amino acid 304 of pds to replace Arginine by Histidine, Threonine, Serine, or Cysteine, using the QuickChange™ Site-Directed Mutagenesis Kit of Stratagene (La Jolla, Calif.) and the same mutagenesis primers used for p3ORF-ATG indicated in the previous section. The resulting plasmids in this case were pHy4His, pHy4Thr, pHy4Ser and pHy4Cys. A 1.8 kb fragment between the TOPO4 SpeI site and the pds SspI site containing the pds gene was cloned into pCAMBIA1303 (CAMBIA, Canberra, Australia) SpeI-Pm1I sites (SspI and PmlI are compatible) replacing the 2.5 kb gus:mgfp; the resulting plasmid was designated pPDATG1303. The same strategy was used for each of the clones containing amino acid changes, generating plasmids pPDHIS1303, pPDTHR1303, pPDSER1303 and pPDCYS1303. The selectable marker in these constructs is the hygromycin phosphotransferase gene (hptll) for resistance to hygromycin in plants.
Arabidopsis thaliana ecotype Columbia (Col-0) was transformed with Agrobacterium using the floral dip method (Clough, S. J. and Bent, A. F. (1998) Floral dip: a simplified method for Agrobacterium-mediated transformation of Arabidopsis thaliana. The Plant Journal 16(6):735-743). Plants were grown at 21° C. with 16 h/8 h day and night until flowering and continuous light after inoculation (plants inoculated with Agrobacterium were denominated T0 plants). Selection of T1 (seeds produced by T0 plants) seedlings was performed on Petri plates with half-strength Murashige and Skoog (MS) medium (Murashige, T. and Skoog, F. (1962) A revised medium for rapid grOwth and bioassays with tobacco tissue cultures. Physiologia plantarum 15:473-497) supplemented with 1% sucrose, 0.2% phytagel and 300 μg/ml cefotaxime. […]
DNA was extracted according to Dilworth and Frey (2000)foreign genes detected by PCR. […]

[2] = test system: Hydrilla PDS Leu^425 → Pro; experiment: Fluridone enzyme inhibition assay, other substitutions (Table 3); assay type: biochemical, Hydrilla verticillata
Method: (§1) To explore whether mutations at positions other than 304 of the hydrilla PDS enzyme and corresponding positions of other plant PDS enzymes also confer herbicide resistance, mutations discovered in Synechococcus strain PCC7942 (Leu^320→Pro; Val^403→Gly; Leu^436→Arg) were introduced into the hydrilla PDS sequence at the corresponding locations, and the resulting PDS enzymes tested for resistance.
(§2) Phytoene desaturase activity and its inhibition by herbicides was determined using an in vitro system using components derived from the in vivo production of phytoene and phytoene desaturase proteins. All mutations described in Examples 3 and 4 were tested. […] The clones were used for the heterologous expression of Hydrilla-PDS-enzyme. In particular, bacterial cultures were grown from single colonies overnight in Wu-broth (6.27 g/L K2HPO4, 1.8 g/L KH2PO4, 0.5 g/L Na-citrate, 0.9 g/L (NH4)2SO4, 10 g/L tryptone, 5 g/L yeast extract, 10 g/L NaCl, 44 ml/L glycerol, 0.1 mM MgSO4, pH 7.2) with kanamycin. 1-mL was aliquoted in centrifuge tube and stored at −80° C. For expression, 1 L LB-medium with kanamycin was inoculated with 1-mL Wu-culture and grown for 24 h at 37° C. to stationary phase with shaking at 200 rpm. The cells were collected by centrifugation at 2000×g. All of the following steps were done at 4° C. unless otherwise noted. Active soluble PDS enzyme was extracted by lysing the transformed E. coli cells using a French Press at 20,000 psi in assay buffer consisting of 100 mM Tris-HCl, pH 7.2, 10 mM magnesium-chloride, 0.1 mM NADP, 0.1 mM FAD, 10 mM cysteine, 5 mM DTT, 1 mM aminocaproic acid, and 1 μg/ml leupeptin. The soluble fraction containing PDS activity was obtained by centrifugation for 10 min at 1200×g. After 24 h they were centrifuged down and used in PDS enzyme activity assays as described below.
(§3) Generally, PDS protein fractions prepared as described above (Non-His-tagged and His-tagged) were mixed with a soluble fraction from phytoene-producing E. coli cells. […]

[3] = test system: Hydrilla PDS Leu^542 → Arg; experiment: as above; assay type: biochemical, Hydrilla verticillata
Method: as §1, §2, §3

[4] = test system: Hydrilla PDS Val^509 → Gly; experiment: as above; assay type: biochemical, Hydrilla verticillata
Method: as §1, §2, §3

Row | Compound | confirmed transformed plants resistant to the herbicide ([1]; construct pPDATG1303) | confirmed transformed plants resistant to the herbicide ([1]; construct pPDSER1303) | confirmed transformed plants resistant to the herbicide ([1]; construct pPDTHR1303) | R/S [2] | R/S [3] | R/S [4]
1 | CNc1cnn(-c2cccc(C(F)(F)F)c2)c(=O)c1Cl [Norflurazon] | 1 | 3 | 1 | – | – | –
2 | Fluridone | – | – | – | 1.6 | 4.5 | 14.5
